One block for each compound: values may come before it.
Tests used:
[1] = tested on: cultured mammalian cells, the NIH-3T3 cells, C2C12 cells, and other mammalian cell lines; assay: Mitochondrial membrane potential (MMP) assay, TMRE (or DilC1(5)) staining, related to OCR induction; format: cell-based; details: ratio of concentration leading to 10% MMP retention (90% MMP loss, TMRE) to minimal concentration leading to OCR increase
Description: Mitochondrial membrane potential assay was performed using the standard TMRE (tetramethylrhodamine ethyl ester) staining method with cultured mammalian cells, the NIH-3T3 cells, C2C12 cells, and other mammalian cell lines. Cells were seeded in 6-well plates and cultured in DMEM medium supplemented with 10% fetal bovine serum and 2 mM glutamine. Cells were allowed to grow to the logarithmic growth phase prior to experiments. The cells were treated with each individual compound at various concentrations for two hours, followed by staining with TMRE at a final concentration of 100 nM for 15 minutes. The cells were then washed once with PBS, and examined under fluorescence microscopy. Cells treated with various concentrations of niclosamide ethanolamine were used as a positive control.
In some examples, mitochondrial membrane potential was measured with DilC1(5) staining. Briefly, DilC1(5) was added to the cells to 50 nM final concentration and the cells were incubated at 37° C., 5% CO2, for 15 to 30 minutes. Cells were washed once by adding 2 mL of warm phosphate-buffered saline (PBS). Mitochondrial staining was determined by fluorescence microscopy with 633 nm excitation using standard filters for far-red emission.
Using the ratio between C10% TMRE (the concentration at which 10% MMP remains, i.e. 90% MMP is lost) and Cmin-OCR (the concentration at which minimal OCR induction is observed), we categorized the MMP-retaining uncouplers into two groups.

C2C12 cells = assay: Mitochondrial uncoupling activity by oxygen consumption rate (OCR) assay, Seahorse, in presence of oligomycin; format: cell-based, mouse; details: for minimal effective concentration: Mus musculus, C2C12, in the presence of oligomycin 2.5 μM, read-out: COCR-min: minimal concentration increasing OCR in the presence of oligomycin
Method in brief: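 Mouse C2C12 myoblasts grown in 10% FBS medium had OCR measured on Seahorse XF96/XF24 sequentially: basal, after 2.5 μM oligomycin (final), then after compound at varying concentrations. Rotenone/antimycin A confirmed mitochondrial origin. COCR-min is the minimal compound concentration inducing OCR in the presence of oligomycin.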

[2] = PO pharmacokinetic study, oral exposure (Example B3); format: in vivo; details: for AUC at 24 h / AUC(0-t) at 24 h: blood, po; for AUC at 24 h: 10 mg/kg gavage; for Fold increase over Compound 27 in U.S. Pat. No. 10,227,315: ratio of oral AUC 24 hr
Description: The blood concentration of the compound was then determined at 0 (pre-dosing), 5 min, 15 min, 30 min, 1 hr, 2 hr, 4 hr, 8 hr, 24 hr time points by LC-MS/MS analysis (See Tables 1 and 2, vide supra).

[3] = tested on: LX-2 cells (human hepatic stellate cells); assay: Inhibition of TGFβ-induced hepatic stellate cell differentiation into myofibroblast-like cells; format: cell-based; details: TGFβ 10 ng/ml; for minimal effective concentration: Homo sapiens, LX-2, hepatic stellate cell differentiation to myofibroblast-like cells, 24 hours, read-out: Minimal inhibitory concentration; for inhibition of TGFβ-induced hepatic stellate cell differentiation: in words
Description: Liver fibrosis is one hallmark of NASH. […] This process could be modeled in vitro using the hepatic stellate differentiation experiment. The human hepatic stellate LX-2 cells were cultured within DMEM (Dulbecco's Modified Eagle Media, pH 7.4) supplied with 2% fetal bovine serum, 4.5 g/l glucose and 2 mM glutamine to 100 percent confluence. […] Cellular morphology was then examined under a microscope. As shown in FIG. 16 to FIG. 17, hepatic stellate cells could be induced by TGF-beta to differentiate into myofibroblast-like cells.

[4] = tested on: high-fat diet (HFD)-induced diabetic mouse model; assay: Efficacy in high-fat diet (HFD)-induced diabetic/fatty liver mouse model; format: in vivo; details: Mus musculus; HFD model, oral daily gavage; read-out: Efficacious dosage to reduce blood glucose in mouse models, oral daily gavage
Description: For HFD induced diabetic mouse model, C57Bl6 mice (male, n=6) were induced to obese and diabetic conditions by feeding high-fat diet (HFD, 60% fat calories, Research Diet, Inc. New Brunswick, NJ) for 3-4 months. […] During the 3-week period, the mice continued feeding HFD. […] The blood glucose levels were measured after an overnight fast, plasma insulin levels were tested after 5-6 hours fast, and the glycated HbA1c levels were determined in whole blood samples.
FIG. 15C and FIG. 15D show liver sections from mice fed HFD following 3 weeks of treatment with Compounds 25 and 64, respectively (P.O. dosing of 5 mg/kg, by daily gavage).
Experiments were similarly performed with other compounds, in either high-fat diet induced diabetes and fatty liver models, or in db/db mouse model, or in both, by daily oral gavage administration with low dosages.

[5] = Metabolic stability assay in rat liver microsomes; format: in vitro ADME; details: 1 μM compound, 0.5 mg/ml microsomal protein, 37° C.; for half-life at 1 µM: rat, liver microsomes, read-out: Metabolic stability half-life (T1/2, min, rat liver microsome)
Description: The metabolic stability of the compounds was evaluated in incubation with rat liver microsomes.

HepG2 = assay: Cell growth inhibition assay (SRB), HepG2; format: cell-based; details: Homo sapiens, HepG2, 48 h
Description: Cell growth inhibition assays were performed using a protocol standardized by National Cancer Institute (NCI) for evaluating anti-cancer drugs. Various mammalian cell lines were used for the assays. Briefly, the cells were inoculated into 96 well microtiter plates. After cell inoculation, the microtiter plates were incubated for cell growth for 24 h prior to the addition of compounds. After 24 h, two plates of each cell line were fixed in situ with TCA, to represent a measurement of the cell population for each cell line at the time of compound addition (Tz). Test compounds were solubilized in dimethyl sulfoxide. At the time of test compound addition, five 10-fold or ½ log serial dilutions were made to provide a total of five test compound concentrations plus control. Aliquots of 100 μl of these different test compound dilutions were added to the appropriate microtiter wells already containing 100 μl of the medium, resulting in the required final test compound concentrations. Following test compound addition, the plates were incubated for an additional 48 h. The assay was terminated by the addition of cold TCA. Cells were fixed in situ with 50 μl of cold 50% (w/v) TCA (final concentration, 10% TCA), washed five times with tap water and air-dried. Sulforhodamine B (SRB) solution (100 μl) at 0.4% (w/v) in 1% acetic acid was added to each well, and plates were incubated for 10 minutes at room temperature. After staining, the unbound dye was removed by washing five times with 1% acetic acid and the plates were air-dried. The bound stain was subsequently solubilized with 10 mM trizma base, and the absorbance was read on an automated plate reader at a wavelength of 515 nm. Using the seven absorbance measurements [time zero, (Tz), control growth, (C), and test growth in the presence of a compound at the five concentration levels (Ti)], the percentage growth was calculated at each of the test compound concentrations levels.

animal models = details: mixed with food, cited from earlier work; for dose required to achieve efficacy, equivalent: equivalent of ppm in diet

SMILES: COCCOCc1cc(F)cc(C(=O)Nc2nc3ccc(C(F)(F)F)cc3s2)c1O [Compound 43]
C10%TMRE/Cmin-OCR [1]: ~43
minimal effective concentration (C2C12 cells): < 5 µM

SMILES: Cc1cc(Cl)cc(C(=O)Nc2nc3c(COCc4ccc(F)cc4)cc(C(F)(F)F)cc3s2)c1O [Compound 83, 5-chloro-N-(4-(((4-fluorobenzyl)oxy)methyl)-6-(trifluoromethyl)benzo[d]thiazol-2-yl)-2-hydroxy-3-methylbenzamide]
C10%TMRE/Cmin-OCR [1]: ~83
minimal effective concentration (C2C12 cells): < 5 µM

SMILES: N#CC1CCN(Cc2cc(Cl)cc(C(=O)Nc3nc4ccc(C(F)(F)F)cc4s3)c2O)C1 (stereo not shown) [Compound 36, 5-chloro-3-((3-cyanopyrrolidin-1-yl)methyl)-2-hydroxy-N-(6-(trifluoromethyl)benzo[d]thiazol-2-yl)benzamide]
C10%TMRE/Cmin-OCR [1]: ~36
minimal effective concentration (C2C12 cells): < 5 µM

SMILES: COCCN(CCOC)Cc1cc(Cl)cc(C(=O)Nc2nc3ccc(C(F)(F)F)cc3s2)c1O [drawing 263]
half-life at 1 µM [5]: 0.467 h

SMILES: CS(=O)(=O)C1CCN(Cc2cc(Cl)cc(C(=O)Nc3nc4ccc(C(F)(F)F)cc4s3)c2O)C1 (stereo not shown) [Compound 37, 5-chloro-2-hydroxy-3-((3-(methylsulfonyl)pyrrolidin-1-yl)methyl)-N-(6-(trifluoromethyl)benzo[d]thiazol-2-yl)benzamide]
C10%TMRE/Cmin-OCR [1]: ~37
minimal effective concentration (C2C12 cells): > 10 µM

SMILES: O=C(Nc1ccc(C(F)(F)F)nc1)c1cc(Cl)ccc1O
C10%TMRE/Cmin-OCR [1]: [drawing 354]

SMILES: Cc1cc(Cl)cc(C(=O)Nc2nc3ccc(C(F)(F)F)cc3s2)c1O [drawing 330]
C10%TMRE/Cmin-OCR [1]: [drawing 330]

SMILES: COCCOCc1cc(C(F)(F)F)cc2sc(NC(=O)c3cc(Cl)cc(C)c3O)nc12 [drawing 348]
C10%TMRE/Cmin-OCR [1]: [drawing 348]

SMILES: Cc1cc(Cl)cc(C(=O)Nc2nc3ccc(C(F)(F)F)cc3s2)c1O [drawing 333]
C10%TMRE/Cmin-OCR [1]: [drawing 333]

SMILES: O=C(Nc1ccc(C(F)(F)F)cc1Cl)c1cc(Cl)ccc1O
C10%TMRE/Cmin-OCR [1]: [drawing 351]

SMILES: COCCOCc1cc(C(F)(F)F)cc2sc(NC(=O)c3cc(Cl)cc(C)c3O)nc12 [drawing 345]
C10%TMRE/Cmin-OCR [1]: [drawing 345]

SMILES: O=C(Nc1nc2ccc(C(F)(F)F)cc2s1)c1cc(Cl)ccc1O [drawing 309]
C10%TMRE/Cmin-OCR [1]: [drawing 309]

Now from value to compound, other results behind:

AUC at 24 h [2]: 10000 to 30000 ng·h/mL
SMILES: O=C(Nc1nc2ccc(C(F)(F)F)cc2s1)c1cc(Cl)cc(CN2CCCC2)c1O [Compound 23, 5-chloro-2-hydroxy-3-(pyrrolidin-1-ylmethyl)-N-(6-(trifluoromethyl)benzo[d]thiazol-2-yl)benzamide]
minimal effective concentration [3]: 5 µM
inhibition of TGFβ-induced hepatic stellate cell differentiation [3]: able to directly inhibit hepatic stellate cell (HSC) activation in vitro
minimal effective concentration (C2C12 cells): < 5 µM
minimal effective dose [4]: 10 mg/kg

AUC at 24 h [2]: > 120000 ng·h/mL
SMILES: O=C(Nc1nc2ccc(C(F)(F)F)cc2s1)c1cc(Cl)cc(C2CCCO2)c1O (stereo not shown) [Compound 15, 5-chloro-2-hydroxy-3-(tetrahydrofuran-2-yl)-N-(6-(trifluoromethyl)benzo[d]thiazol-2-yl)benzamide]
minimal effective concentration (C2C12 cells): < 5 µM
minimal effective dose [4]: 2.5 mg/kg

half-life at 1 µM [5]: 14.7 h
SMILES: CN(C)Cc1cc(Cl)cc(C(=O)Nc2nc3ccc(C(F)(F)F)cc3s2)c1O

half-life at 1 µM [5]: 1.53 h
SMILES: O=C(Nc1nc2ccc(C(F)(F)F)cc2s1)c1cc(Cl)cc(CN2CCCCC2)c1O [drawing 264]

GI50 (HepG2): < 5 µM
SMILES: Cc1cc(Cl)cc(C(=O)Nc2nc3c(C4CCCO4)cc(C(F)(F)F)cc3s2)c1O (stereo not shown) [Compound 71, 5-chloro-2-hydroxy-3-methyl-N-(4-(tetrahydrofuran-2-yl)-6-(trifluoromethyl)benzo[d]thiazol-2-yl)benzamide]
minimal effective concentration (C2C12 cells): < 5 µM

GI50 (HepG2): < 5 µM
SMILES: O=C(Nc1nc2ccc(C(F)(F)F)cc2s1)c1cc(Cl)cc(CN2CCC(C(F)(F)F)CC2)c1O [Compound 57, 5-chloro-2-hydroxy-N-(6-(trifluoromethyl)benzo[d]thiazol-2-yl)-3-((4-(trifluoromethyl)piperidin-1-yl)methyl)benzamide]
minimal effective concentration (C2C12 cells): < 5 µM

AUC(0-t) at 24 h ([2]; 10 mg/kg): 4410 ng·h/mL
Fold increase over Compound 27 in U.S. Pat. No. 10,227,315 [2]: 1.5
SMILES: Cc1cc(Cl)cc(C(=O)Nc2nc3ccc(C(F)(F)F)cc3s2)c1O [Compound 28 in U.S. Pat. No. 10,227,315, reference compound]
dose required to achieve efficacy, equivalent (animal models): 60 to 75 mg/kg/day
dose required to achieve efficacy, in diet (animal models): 600-750 ppm

AUC(0-t) at 24 h ([2]; 10 mg/kg): ~3000 ng·h/mL
Fold increase over Compound 27 in U.S. Pat. No. 10,227,315 [2]: 1.0
SMILES: CCc1cc(Cl)cc(C(=O)Nc2nc3ccc(C(F)(F)F)cc3s2)c1O [Compound 27 in U.S. Pat. No. 10,227,315, reference compound]
dose required to achieve efficacy, equivalent (animal models): 60 to 75 mg/kg/day
dose required to achieve efficacy, in diet (animal models): 600-750 ppm

AUC(0-t) at 24 h ([2]; 50 mg/kg): ~1800 ng·h/mL
SMILES: O=C(Nc1ccc([N+](=O)[O-])cc1Cl)c1cc(Cl)ccc1O [niclosamide ethanolamine]
dose required to achieve efficacy, equivalent (animal models): 150 mg/kg/day
dose required to achieve efficacy, in diet (animal models): 1500 ppm

half-life at 1 µM [5]: 1.5 h
SMILES: O=C(Nc1nc2ccc(C(F)(F)F)cc2s1)c1cc(Cl)cc(CN2CCOCC2)c1O

Metabolic stability half-life (T1/2, min, rat liver microsome) [5]: ∞
SMILES: CN(C)Cc1cc(Cl)cc(C(=O)Nc2nc3ccc(OC(F)(F)F)cc3s2)c1O

AUC at 24 h [2]: 10000 to 30000 ng·h/mL
SMILES: Cl.O=C(Nc1nc2ccc(C(F)(F)F)cc2s1)c1cc(Cl)cc(CN2CCOCC2)c1O [Compound 16, 5-chloro-2-hydroxy-3-(morpholinomethyl)-N-(6-(trifluoromethyl)benzo[d]thiazol-2-yl)benzamide]
minimal effective concentration [3]: 5 µM
inhibition of TGFβ-induced hepatic stellate cell differentiation [3]: able to directly inhibit hepatic stellate cell (HSC) activation in vitro
minimal effective concentration (C2C12 cells): < 5 µM
effect on oxygen consumption rate (OCR) (C2C12 cells; in words): increase OCR in the presence of oligomycin
minimal effective dose [4]: 1 mg/kg

From patent US20260306502A1, “MITOCHONDRIAL UNCOUPLERS FOR TREATMENT OF METABOLIC DISEASES AND CANCER” (Mito Biopharma, LLC, priority 2022, published 2026)
